test: Human HepG2 cell viability assay in 384 well format; format: toxicity, cell-based; design: dose 125 nL, time 70.5 hour; cytotoxicity at 70.5 h: concentration not given beside the values; settings: HepG2 cells, read-out: Inhibition

SMILES | cytotoxicity at 70.5 h
Cc1nc(C)n(CC2CCCN(CC(=O)N3CCCC3)C2)n1 (configuration not stated) | -4.82%
O=C(NCC(c1ccccc1)N1CCOCC1)Nc1cn[nH]c1 (configuration not stated) | 1.36%
COc1ccnc(N2CCN(C(=O)Cc3csc(C)n3)CC2)n1 | 1.2%
Cc1nnc(C2Cc3ccccc3CN2Cc2nc(C(C)C)no2)o1 (configuration not stated) | 1.77%
CCn1cnnc1CNC(=O)N1CCN(C(C)C)CC1 | 26%
Cc1nc(C)n(CC2CCCN(CCC(=O)NC3CCCCC3)C2)n1 (configuration not stated) | -3.01%
COc1ccc(CC(=O)N2CCCCC2Cn2cc(C)cn2)cc1F (configuration not stated) | 2.82%
O=C(c1sccc1C1CC1)N1CCCN(Cc2cscn2)CC1 | -0.238%
COc1ccc(CC(=O)N2CCCC2Cn2cc(C)cn2)c(OC)c1 (configuration not stated) | -0.475%
Cc1cnn(CC2CCCN2C(=O)CCc2ccc3c(c2)OCO3)c1 (configuration not stated) | 20.8%
CCc1ncncc1C(=O)NC1CCc2nc(C)cn2C1 (configuration not stated) | -1.22%
Cc1cn2c(n1)CCC(NC(=O)c1csc(C(C)C)n1)C2 (configuration not stated) | -0.273%
CCc1nc(C2CCCN(C(=O)C(C)(C)NS(C)(=O)=O)C2)no1 (configuration not stated) | 0.741%
Cc1nccc(C(=O)N2CCOC(c3nc(C(C)C)n[nH]3)C2)n1 (configuration not stated) | -5.71%
COc1c(C2CCCN2C(=O)c2ccc3[nH]cnc3c2)c(C)nn1C (configuration not stated) | -0.572%
Cc1noc(C)c1C(=O)N1CCCN(Cc2cscn2)CC1 | -2.11%
COc1c(C2CCCN2C(=O)c2ccnc(C)n2)c(C)nn1C (configuration not stated) | -12.9%
C1CC(NCc2nnc(C3CC3)o2)CN(Cc2noc(C3CC3)n2)C1 (configuration not stated) | -7.51%
COCc1cccc(CNCc2c(C)nn(C)c2N2CCOCC2)c1 | -12.5%
CCOC(C)C(=O)NCc1ccc(N(C)C)cc1 (configuration not stated) | -10.8%
Cc1oc(C)c(C(=O)N2CCN(Cc3cscn3)CC2)c1C | -7.99%
O=C(CCc1ccccn1)N1CCCC1 | -3.29%
Cc1cnc(C(=O)NCc2ccnc(N(C)C)c2)cn1 | -2.67%
O=C(NCCC(=O)N1CCCc2ccccc21)c1cc(F)cc(F)c1 | -7.42%
Cc1occc1C(=O)N1CCCC(c2nncn2C)C1 (configuration not stated) | -6.07%
Cn1cnnc1C1CCCN(C(=O)c2cc(Cl)c(Cl)n2C)C1 (configuration not stated) | -8.15%

SMILES | cytotoxicity at 70.5 h
Cc1nn(C)c(N2CCOCC2)c1CNCc1ccc(CO)c(F)c1 | -0.89%
O=C(Cc1ccccn1)N1CCN(C(=O)CC2CCCC2)CC1 | -1.56%
Cc1ccc(N2CCCN(C(=O)CCc3nccs3)CC2)nn1 | -8.06%
CCCc1noc(CNC2CCCN(Cc3noc(C4CC4)n3)C2)n1 (configuration not stated) | -3.33%
CCNc1cc2c(nn1)CCN(C(=O)c1ccoc1)C2 | -11.9%
O=C(CCc1nccs1)N1CCN(c2ccccn2)CC1 | 8.13%
CCc1n[nH]c(C2CN(Cc3nc(C4CC4)no3)CCO2)n1 (configuration not stated) | -3.3%
COc1c(C)cnc(CN(C)C(=O)c2cccnc2N(C)C)c1C | -0.657%
O=C(COc1ccc2c(c1)CCC2)N1CCCC(n2cccn2)C1 (configuration not stated) | 15.3%
O=C(COCCc1ccccc1)N1CCCC(n2cccn2)C1 (configuration not stated) | -6.79%
O=C(c1cccc2c1OCO2)N1CCCCC1Cn1cccn1 (configuration not stated) | -10.8%
Cc1nc2n(n1)CC(NCc1nc(-c3cccnc3)no1)CC2 (configuration not stated) | -7.76%
CCOc1ncccc1C(=O)N1CCCC(n2nc(C)nc2C)C1 (configuration not stated) | -11.7%
O=C(CCNC(=O)c1ccoc1)Nc1ccccc1F | -8.3%
O=C(CCNC(=O)c1ccoc1)Nc1ccc(F)cc1F | -10.2%
COc1ccc(C2CCCN2C(=O)Nc2ccc(OC)nc2)cc1 (configuration not stated) | -7.84%
CCc1nc(CN2CCCC(NCc3ncc(C(C)(C)C)o3)C2)no1 (configuration not stated) | 8.8%
CCc1nc(CN2CCCC(NCc3nnc(C4CC4)o3)C2)no1 (configuration not stated) | 0.376%
CC(=O)N(Cc1ncc(C)o1)C1CCN(Cc2ccncc2Cl)C1 (configuration not stated) | -1.73%
CC(=O)N(Cc1ncc(C)o1)C1CCN(Cc2noc(C)n2)C1 (configuration not stated) | -5.31%
CN(C)c1cc(CNC(=O)c2ccc(=O)[nH]n2)ccn1 | 1.83%
O=C(NCCNc1ccc(C(F)(F)F)cn1)c1ccc(Br)cc1F | 17.1%
Cn1cnnc1C1CCCN(C(=O)c2n[nH]c3ccccc23)C1 (configuration not stated) | 4.38%
CC(CNC(=O)Nc1cn[nH]c1)N1CCc2ccccc2C1 (configuration not stated) | -7.18%
CCn1cnnc1CNC(=O)N1CCCN(C(C)=O)CC1 | -11.8%
CS(=O)(=O)NC1CCCN(C(=O)NCc2cc[nH]n2)C1 (configuration not stated) | 10.8%

SMILES | cytotoxicity at 70.5 h
O=C(CCc1nccs1)N1CCN(c2cccnn2)CC1 | -3.92%
O=C(CCc1nccs1)N1CCN(c2ccc(Br)cn2)CC1 | 22.4%
Cc1cn2c(n1)CCC(NC(=O)c1cnc(C)nc1C(C)C)C2 (configuration not stated) | -9%
CCc1nc(C2CCCN(C(=O)CN(C)S(C)(=O)=O)C2)no1 (configuration not stated) | 3.45%
Cc1n[nH]c(C2CN(C(=O)c3ccnc(C4CC4)n3)CCO2)n1 (configuration not stated) | -10.4%
CCNC(=O)N1CCCC(c2noc(CC)n2)C1 (configuration not stated) | -3.02%
O=C(NCCC(=O)N1CCCc2ccccc21)c1c(O)cc(F)cc1F | -9.76%
O=C(NCCC(=O)N1CCCCCC1)c1c(O)cc(F)cc1F | 9.05%
Cc1cc(CN2Cc3ccccc3CC2c2nnc(C)o2)on1 (configuration not stated) | -6.94%
Cc1cnn(CC2CCCN2C(=O)CCc2ccsc2)c1 (configuration not stated) | -5.3%
c1ccc(CCN2CCOC(Cn3cccn3)C2)nc1 (configuration not stated) | -4.02%
Cc1nc(C)n(CC2CCCN(CCC(=O)N3CCCCC3)C2)n1 (configuration not stated) | -1.55%
CCn1cnnc1CNC(=O)N1CCC(Cc2cccnc2)CC1 | 34.8%
CCn1cc(CN2CCCN(C(=O)C3=NN(C)C(=O)CC3)CC2)cn1 | 17.3%
Cc1nc(CN2CCCCC2Cn2cncn2)nc2ccccc12 (configuration not stated) | 20.9%
Cc1nc(CN(C)C2CCN(Cc3ccno3)C2)no1 (configuration not stated) | 29.4%
O=C(CCNC(=O)c1ccoc1)NCc1ccccc1F | -11%
Cn1cnnc1C1CCCN(C(=O)c2ccc3c(c2)OCCCO3)C1 (configuration not stated) | -2.02%
COCCOCc1cccc(NC(=O)N2CCCC2c2ccncc2)c1 (configuration not stated) | 1.97%
Cn1cnnc1C1CCCN(C(=O)NCc2ccc3c(c2)OCO3)C1 (configuration not stated) | -0.469%
c1cc(CN2CCN(Cc3cscn3)CC2)cs1 | -6.89%
CCc1noc(C)c1C(=O)N(C)Cc1ncc(C)c(OC)c1C | -30.2%
O=C(CCc1ccccn1)N1CCN(C(=O)CC2CCCCC2)CC1 | -4.45%
Cc1nc(C)n(CC2CCCN2Cc2cc(C)on2)n1 (configuration not stated) | -1.6%
O=C1COc2c(cccc2C(=O)N2CCCCC2Cn2cccn2)N1 (configuration not stated) | -4.26%
O=C(CC1CCCCC1)N1CCN(C(=O)NCc2ccccn2)CC1 | -9.56%

SMILES | cytotoxicity at 70.5 h
CC(NC(=O)NCCOc1ccc(F)c(F)c1)c1nncn1C (configuration not stated) | -0.895%
Cc1cc(C)n(CC2CCCCN2Cc2cscn2)n1 (configuration not stated) | -13.4%
CNc1cc2c(nn1)CCN(C(=O)c1cc(F)cc(F)c1)C2 | -10%
CNc1cc2c(nn1)CCN(C(=O)c1ccc(-n3nccc3C)cc1)C2 | -5.27%
Cc1nc(C)n(CC2CCCN2Cc2cscn2)n1 (configuration not stated) | -9.32%
CN1CCN(C(=O)CC2CCN(CCc3ccccn3)CC2)CC1 | -0.784%
Cc1nc(CN2CCCC(N(C)Cc3c(C)noc3C)C2)no1 (configuration not stated) | 10.6%
CC(C)c1nc2n(n1)CC(NCc1nc(-c3cccnc3)no1)CC2 (configuration not stated) | 21.9%
CC(C)c1nccn1C1CCCN(C(=O)c2ccc3c(c2)OCO3)C1 (configuration not stated) | -12.1%
Cc1n[nH]c(C)c1NC(=O)CN1CCn2c(nnc2C(C)C)C1 | -7.95%
CN(Cc1nnc(-c2ccco2)o1)CC1CCCN1c1cccnn1 (configuration not stated) | 5.51%
Cc1cc(CN(C)C(=O)C2CCS(=O)(=O)C2)no1 (configuration not stated) | 2.42%
CC(=O)Nc1nc(C(=O)NC(C)c2ccc3c(c2)OCCO3)cs1 (configuration not stated) | -11.4%
Cc1csc(CNC(=O)NCCc2ccc3c(c2)OCCO3)n1 | 20.8%
Cc1noc(C2CCCN(C(=O)c3ccc(Br)o3)C2)n1 (configuration not stated) | 19.7%
CCCNC(=O)NC(=O)CN(CC(C)O)c1ccccc1 (configuration not stated) | -3.55%
CC(O)CN(CC(=O)NC(=O)NC1CC1)c1ccccc1 (configuration not stated) | -11%
O=C(Cc1ccc(-n2cccn2)cc1)N1CCCC(n2cccn2)C1 (configuration not stated) | 17.4%
Cc1cnn(C2CCCN(C(=O)c3ccn(C)c(=O)c3)C2)c1 (configuration not stated) | -11.3%
COc1ccccc1CC1CCCN(CCC#N)C1 (configuration not stated) | -13.9%
CCOc1ccccc1-c1noc(CN2CC(n3cccn3)C2)n1 | -14.4%
O=C(Cc1ccc2c(c1)OCCO2)N1CCCC(n2ccnc2)C1 (configuration not stated) | 18.8%
CCn1nc(C(=O)N2CCCC(n3cncn3)C2)ccc1=O (configuration not stated) | -14.8%
CCOc1ccccc1-c1noc(CN2CCCC(O)C2)n1 (configuration not stated) | -11.1%

Reference: ChEMBL document CHEMBL3507680, “University of Dundee, Gates Library screen for HepG2 cell viability”
